# Data reported in patent US9511050B2, “Methods and compositions for treating cancer” (GEORGETOWN UNIVERSITY, priority 2013, dated 2016).
# Read-outs that look alike come from different tables or passages of the source.
# Key:
# Ewing Sarcoma xenograft = Ewing Sarcoma xenograft models; cited from earlier work
# BSA = BSA (Bos taurus, UniProt P02769); assay: Surface plasmon resonance binding to non-specific protein BSA; conditions: SPR, read-out: affinity for BSA
# Protocol: Steady state kinetics were measured on a Biacore T100 instrument, as previously described (Erkizan H V, Kong Y, Merchant M, Schlottmann S, Barber-Rotenberg J S, Yuan L, et al. A small molecule blocking oncogenic protein EWS-FLI1 interaction with RNA helicase A inhibits growth of Ewing's sarcoma. Nat Med. 2009 July; 15(7):750-6. PubMed PMID: 19584866. Eng; Barber-Rotenberg J S, Selvanath), SPR sensograms are not shown.
# [1] = tested on: PANC1 (a human pancreatic carcinoma); assay: IC50 activity in PANC1 cells; assay type: cell-based
# Protocol: (§1) Compounds provided in Table 2 were prepared using methods similar to those described herein. The structures and IC50 activities of particular compounds in PANC1 (a human pancreatic carcinoma), TC32 (human ESFT cell line), and TC71 (human ESFT cell line) cells are summarized in Table 2.
# EWS-FLI1/RHA interaction = molecular target: T1, EWS-FLI1/RHA interaction (Homo sapiens, UniProt Q01543+Q01844); assay: Immunoblot/co-precipitation of RHA and EWS-FLI1 from treated TC32 cells; assay type: cell-based; conditions: TC32 cell lysates
# T1 construct: endogenous in cells; host or cells: TC32
# T1 sequence (Q01844+Q01543 with tags, fused parts or gaps): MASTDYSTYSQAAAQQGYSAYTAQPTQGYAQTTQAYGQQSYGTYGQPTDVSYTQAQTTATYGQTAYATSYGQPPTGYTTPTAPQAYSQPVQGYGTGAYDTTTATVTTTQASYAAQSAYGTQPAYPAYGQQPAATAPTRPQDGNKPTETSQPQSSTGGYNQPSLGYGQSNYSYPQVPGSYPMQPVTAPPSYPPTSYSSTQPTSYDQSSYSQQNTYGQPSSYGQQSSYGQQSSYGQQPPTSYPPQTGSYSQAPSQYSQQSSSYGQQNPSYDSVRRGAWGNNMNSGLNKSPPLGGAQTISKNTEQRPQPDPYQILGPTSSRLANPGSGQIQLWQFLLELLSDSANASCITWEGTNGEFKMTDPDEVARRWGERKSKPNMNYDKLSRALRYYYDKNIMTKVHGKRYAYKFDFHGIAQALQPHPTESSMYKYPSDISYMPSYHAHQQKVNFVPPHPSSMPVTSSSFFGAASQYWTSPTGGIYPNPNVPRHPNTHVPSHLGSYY
# [2] = tested on: TC32 (human ESFT cell line); assay: IC50 activity in TC32 cells; assay type: cell-based
# Protocol: as §1
# [3] = tested on: TC71 (human ESFT cell line); assay: IC50 activity in TC71 cells; assay type: cell-based
# Protocol: as §1
# (§2) Growth inhibition of ESFT cells was measured for various concentrations of particular compounds.
# ESFT cells = assay: Growth inhibition of ESFT cells; assay type: cell-based; conditions: ESFT cells growing in monolayer
# Protocol: as §2
# EWS-FLI1 [4] = molecular target: T2, EWS-FLI1 (Homo sapiens, UniProt Q01543); conditions: read-out: affinity (KD) for EWS-FLI1; cited from earlier work
# T2 sequence (Q01543 220-452 limits assumed): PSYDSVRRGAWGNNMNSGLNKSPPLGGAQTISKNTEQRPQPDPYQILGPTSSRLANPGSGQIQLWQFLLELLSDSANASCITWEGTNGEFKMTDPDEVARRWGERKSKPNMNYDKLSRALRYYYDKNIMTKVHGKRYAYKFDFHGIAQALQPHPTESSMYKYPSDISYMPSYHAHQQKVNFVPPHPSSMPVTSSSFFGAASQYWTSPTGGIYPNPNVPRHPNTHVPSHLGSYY
# GBM cell lines = assay: Growth of GBM cell lines; assay type: cell-based; conditions: range over GBM cell lines
# Source text: Seven cell lines were selected with a spectrum of genetic abnormalities that occur in GBM. […] A panel of GBM cell lines were acquired that represent the heterogeneity of the disease.
# ES xenografts = assay: ES xenograft tumor regression in mice; assay type: in vivo; conditions: 400 mg/kg intraperitoneal, three days, 6 total doses, tumors 300 mm^3
# Protocol: FIG. 13A: Mice with ES xenografts were treated with 400 mg/kg compound or controls as indicated. Starting well-established tumors (300 mm^3), mice were treated with intraperitoneal compound for three days, 6 total doses. FIG. 13B: H and E stained tumors from same experiment.
# YK-4-279 upon xenograft GBM tumors is evaluated by treating animals seven days after tumor injection and those with symptomatic tumors. Early tumors are screened with Xenogen, and size correlated with MRI, and treatment started when animals 5 mm^3 lesions. YK-4-279 passes the blood-brain barrier. […] The study will measure brain tumor volumes, animal symptoms, and overall survival. At necropsy, tumors and normal adjacent brain will be evaluated by immunohistochemistry for GBM markers, apoptosis, and FLI1 regulated target genes. […] FIG. 13A: Mice with ES xenografts were treated with 400 mg/kg compound or controls as indicated. Starting well-established tumors (300 mm^3), mice were treated with intraperitoneal compound for three days, 6 total doses. FIG. 13B: H and E stained tumors from same experiment.
# [5] = Rat pharmacokinetics, IV injection, observation; assay type: in vivo; conditions: rats, rapid injection; did not occur with slower infusion
# Source text: One of the significant challenges in getting novel targeted therapy into GBM is overcoming the blood-brain barrier (BBB).
# EWS-FLI1 [6] = molecular target: T3, EWS-FLI1 (Homo sapiens, UniProt Q01543+Q01844); conditions: enantiomer specificity; cited from earlier work
# T3 sequence (Q01543 220-452 limits assumed): T2 sequence (Q01543 220-452 limits assumed)
# BSA, sequence (P02769 25-607): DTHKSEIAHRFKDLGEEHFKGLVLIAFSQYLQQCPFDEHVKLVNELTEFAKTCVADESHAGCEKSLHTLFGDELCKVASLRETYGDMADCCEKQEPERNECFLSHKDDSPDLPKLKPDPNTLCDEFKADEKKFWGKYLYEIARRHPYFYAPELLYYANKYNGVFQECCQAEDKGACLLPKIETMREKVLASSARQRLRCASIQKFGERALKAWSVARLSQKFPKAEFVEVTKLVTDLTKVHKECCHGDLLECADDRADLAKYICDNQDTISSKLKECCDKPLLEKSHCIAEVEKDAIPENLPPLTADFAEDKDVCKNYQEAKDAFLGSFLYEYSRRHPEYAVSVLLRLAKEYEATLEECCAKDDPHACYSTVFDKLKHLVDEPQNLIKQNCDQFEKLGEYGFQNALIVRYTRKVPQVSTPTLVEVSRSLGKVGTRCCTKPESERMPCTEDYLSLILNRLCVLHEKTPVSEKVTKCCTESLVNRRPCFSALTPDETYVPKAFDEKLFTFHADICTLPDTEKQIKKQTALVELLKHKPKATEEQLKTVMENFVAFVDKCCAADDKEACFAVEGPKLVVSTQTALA
Kd (BSA),"IC50 ([1]; Homo sapiens, PANC-1, PANC1 cells)","IC50 ([1]; PANC1 cells, read-out: IC50 PANC 1)",interaction of RHA with EWS-FLI1 (EWS-FLI1/RHA interaction; co-precipitation),"IC50 ([2]; Homo sapiens, TC-32, TC32 cells)",IC50 ([2]; TC32 cells),"IC50 ([3]; Homo sapiens, TC-71, TC71 cells)",IC50 ([3]; TC71 cells),SMILES,tumor growth (Ewing Sarcoma xenograft),level of EWS-FLI1 or RHA (EWS-FLI1/RHA interaction; immunoblot),IC50 (ESFT cells),Kd (EWS-FLI1 [4]),IC50 (GBM cell lines),tumor response (ES xenografts),observation after IV injection [5],inhibition of functional activities of EWS-FLI1 (EWS-FLI1 [6])
122 µM,20 µM,34 µM,did disrupt their interactions,940 nM,766 nM,918 nM,1430 nM,COc1ccc(C(=O)CC2(O)C(=O)Nc3c(Cl)ccc(Cl)c32)cc1 (racemic) [YK-4-279],reduced tumor growth,did not directly affect the level of EWS-FLI1 or RHA,900 nM,9.5 µM,0.5 to 9.9 µM,significant tumor regression,rats became somnolent after rapid injection,–
–,–,–,–,–,–,–,–,COc1ccc(C(=O)C[C@@]2(O)C(=O)Nc3c(Cl)ccc(Cl)c32)cc1 [(S)-YK-4-279],–,–,–,–,–,significant tumor regression,–,able to inhibit the functional activities of EWS-FLI1
